Measurements: patent publication US20080103191A1, “ENTACAPONE-DERIVATIVES” (priority 2006, published 2008)
Converted amounts (≈) assume the structure as drawn. Like-named read-outs stand apart in the source and are kept apart here.

Legend:
[1] = Solubility in 0.1 N HCl, PBS buffer, FaSSIF and FeSSIF; assay type: physicochemical; conditions: thermodynamic from solid
In short: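 Excess compound was shaken for 10 min at ambient temperature in 0.1 N HCl (pH 1), PBS (pH 7.4), FaSSIF (pH 6.5) or FeSSIF (pH 5.0). After centrifugation, the dissolved concentration was measured by reversed-phase HPLC with UV detection at 220 nm.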

[2] = Log D (pH 7.4) by isocratic HPLC; assay type: physicochemical; conditions: YMC Pro C18 column, phosphate buffer pH 7.4/acetonitrile 45/55
In short: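 Retention measured by isocratic HPLC on a C18 column (150 mm×4.0 mm, 3 μm) eluted with phosphate buffer pH 7.4/acetonitrile 45/55 (v/v) at 1.2 ml/min, run time 15-60 min. Detection at 220 nm.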

[3] = Stability in TPGS/PG over 22 h; assay type: physicochemical; conditions: for Amount of compound: TPGS/PG, ambient temperature; for Amount of entacapone: entacapone formed in TPGS/PG
Description: The stability of selected compounds of formula I in TPGS/PG over 22 h is tested by the following procedure: […]
37.5 mg of compounds 15, 35 and 57, respectively […] of compound 63, are in each case added to 25 mL of TPGS/PG (25% by weight of TPGS, 75% by weight of PG) (concentration of compounds 15, 35, 57:1.5 mg/mL; concentration of compound 63:1.4 mg/mL). Each formulation obtained is stirred for 22 h at ambient temperature. The amount of the respective compound of formula I and the amount of entacapone are determined after 5 h, 8 h, 11 h, and 22 h by HPLC assay. Reversed phase gradient HPLC method, column YMC Pro C8, 50 mm×4.0 mm, 3 μm, Eluent A: Water:trifluoroacetic acid (100:0.5 (v/v)), Eluent B: Acetonitrile:trifluoroacetic acid (100:0.5 (v/v)). Column temperature 30° C., Flow rate 3.0 mL/min, Detection wavelength: 220 nm

[4] = Pharmacokinetic profile of compound 15 in Labrasol, TPGS/PG or phosphate buffer in rats; assay type: in vivo, Male Sprague-Dawley rats; conditions: oral 10 mg/kg entacapone equivalents, FIG. 1
Description: The pharmacokinetics of compound 15 in rats following oral administration is tested as described in Table 15 below.
The results are summarized in FIG. 1 (The symbols in FIG. 1 have the following meanings: c (ng/mL) concentration in ng/mL, t (min) time in minutes). […] Entacapone concentration is shown in ng/mL, and time is shown in minutes.

[5] = Permeability in Caco-2 cells, apical to basolateral; assay type: in vitro ADME; parameters: dose or concentration left out as unconfirmed; conditions: human; 21d Caco-2 monolayer, apical pH 6.5 to basolateral pH 7.4, 60 minutes
In short: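 21-day Caco-2 monolayers dosed apically at 20 mM nominal test item concentration, apical pH 6.5, basolateral pH 7.4. Basolateral receiver sampled after 60 min and quantified by HPLC or LC-MS/MS; ³H-propranolol and ³H-mannitol controls sampled at 120 min and measured by scintillation.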

[6] = FaSSIF, pH 6.5, fassif, Table 11, read-out: Solubility FaSSIF pH 6.5
[7] = FaSSIF, pH 6.5, fassif, fasting state fluid, ambient temperature, read-out: Solubility FaSSIF Ph 6.5
[8] = FeSSIF, pH 5, fessif, Table 11, read-out: Solubility FeSSIF pH 5.0
[9] = FeSSIF, pH 5, fessif, fed state fluid, ambient temperature, read-out: Solubility FeSSIF Ph 5.0
[10] = PBS buffer, pH 7.4, aqueous buffer, Table 11, read-out: Solubility PBS pH 7.4
[11] = PBS buffer, pH 7.4, aqueous buffer, ambient temperature, read-out: Solubility PBS Ph 7.4
[12] = 5 h, start 1.5 mg/mL (compound 63: 1.4 mg/mL)

SMILES | solubility at 10 min [1, 6] [µg/mL] | solubility at 10 min [1, 7] [µg/mL] | solubility at 10 min [1, 8] [µg/mL] | solubility at 10 min [1, 9] [µg/mL] | solubility at 10 min [1, 10] [µg/mL] | solubility at 10 min [1, 11] [µg/mL] | chromatographic logD [2] | Amount of compound [3, 12] [mg/mL] | Amount of compound ([3]; 8 h) [mg/mL] | Amount of compound ([3]; 11 h) [mg/mL] | Amount of compound ([3]; 22 h) [mg/mL] | Amount of entacapone ([3]; 5 h) [mg/mL] | Amount of entacapone ([3]; 8 h) [mg/mL] | Amount of entacapone ([3]; 11 h) [mg/mL] | Amount of entacapone ([3]; 22 h) [mg/mL] | plasma level of entacapone formed, compared with phosphate buffer formulation ([4]; Labrasol formulation) | plasma level of entacapone formed, compared with phosphate buffer formulation ([4]; TPGS/PG formulation) | Papp A→B at 60 min [5] [×10⁻⁶ cm/s] | solubility at 10 min ([1]; 0.1 N HCl, pH 1, simulated gastric fluid, Table 11, maximum solubility, read-out: Solubility 0.1N HCl pH 1.0) [µg/mL] | solubility at 10 min ([1]; 0.1 N HCl, pH 1, simulated gastric fluid, ambient temperature, shaken 10 min, read-out: Solubility 0.1N HCl Ph 1.0) [µg/mL]
CCCCC(CC)COC(=O)Oc1cc(/C=C(\C#N)C(=O)N(CC)CC)cc([N+](=O)[O-])c1O (stereo not drawn) [Compound 15, Carbonic acid 5-((E)-2-cyano-2-diethylcarbamoyl-vinyl)-2-hydroxy-3-nitro-phenyl ester 2-ethyl-hexyl ester] | 180 (≈ 390 µM) | 180 (≈ 390 µM) | 190 (≈ 412 µM) | 190 (≈ 412 µM) | 150 (≈ 325 µM) | 150 (≈ 325 µM) | 2.9 | 1.23 | 1.23 | 1.16 | 1.05 | 0.05 | 0.06 | 0.10 | 0.17 | more constant | more constant |  |  | 
CCCCCCCCOC(=O)Oc1cc(/C=C(\C#N)C(=O)N(CC)CC)cc([N+](=O)[O-])c1O [Compound 35, Carbonic acid 5-((E)-2-cyano-2-diethylcarbamoyl-vinyl)-2-hydroxy-3-nitro-phenyl ester octyl ester] | 150 (≈ 325 µM) | 150 (≈ 325 µM) | 150 (≈ 325 µM) | 150 (≈ 325 µM) | 130 (≈ 282 µM) | 130 (≈ 282 µM) | 3.1 | 1.21 | 1.36 | 1.40 | 1.23 | 0.03 | 0.05 | 0.07 | 0.08 |  |  | > 42 |  | 
CCN(CC)C(=O)/C(C#N)=C/c1cc(OC(=O)OCC2CCCCC2)c(O)c([N+](=O)[O-])c1 [Compound 57, Carbonic acid 5-((E)-2-cyano-2-diethylcarbamoyl-vinyl)-2-hydroxy-3-nitro-phenyl ester cyclohexylmethyl ester] | 140 (≈ 314 µM) | 140 (≈ 314 µM) | 30 (≈ 67.3 µM) | 30 (≈ 67.3 µM) | 260 (≈ 584 µM) | 260 (≈ 584 µM) | 2.3 | 1.37 | 1.39 | 1.35 | 1.31 | 0.03 | 0.04 | 0.05 | 0.08 |  |  | 55 |  | 
CCCC(C)OC(=O)Oc1cc(/C=C(\C#N)C(=O)N(CC)CC)cc([N+](=O)[O-])c1O (stereo not drawn) [Compound 63, Carbonic acid 5-((E)-2-cyano-2-diethylcarbamoyl-vinyl)-2-hydroxy-3-nitro-phenyl ester 1-methyl-butyl ester] | 750 (≈ 1790 µM) | 750 (≈ 1790 µM) | 170 (≈ 405 µM) | 170 (≈ 405 µM) | 1230 (≈ 2930 µM) | 1230 (≈ 2930 µM) | 1.4 | 1.25 | 1.12 | 1.16 | 1.08 | 0.02 | 0.02 | 0.02 | 0.03 |  |  |  | 20 (≈ 47.7 µM) | 20 (≈ 47.7 µM)
